From patent publication US20140120060A1, “TREATMENT OF RHEUMATOID ARTHRITIS AND ASTHMA USING PI3 KINASE INHIBITORS” (INFINITY PHARMACEUTICALS, INC., priority 2012, published 2014) come the findings set out here.

The subject of this experiment is B cell. Nature of the experiment: B cell proliferation. Format: cell-based.
In turn, `Cc1cccc2cc(Cn3cnc4c(N)ncnc43)n(-c3ccccc3F)c(=O)c12` [Compound 1] returned an EC50 below 10 µM.

Compound `Cc1cccc2cc(Cn3nc(I)c4c(N)ncnc43)n(-c3ccccc3F)c(=O)c12` [Compound 2] yielded an EC50 below 10 µM.

For the compound `Cc1cccc2cc(Cn3nc(-c4cc(O)cc(F)c4)c4c(N)ncnc43)n(-c3ccccc3F)c(=O)c12` [Compound 3], the concentration giving a half-maximal response (EC50) was below 0.1 µM.

In turn, `Cc1cccc2cc(Cn3nc(C#CC4CC4)c4c(N)ncnc43)n(-c3ccccc3F)c(=O)c12` [Compound 4] registered an EC50 below 1 µM.

Compound `Cc1ccccc1-n1c(Cn2cnc3c(N)ncnc32)cc2cccc(C)c2c1=O` [Compound 5] had an EC50 below 10 µM.

In turn, `Cc1cccc2cc(Cn3nc(C#CCO)c4c(N)ncnc43)n(-c3ccccc3F)c(=O)c12` [Compound 8] displayed an EC50 below 1 µM.

Consider `Cc1cccc2cc(Cn3nc(-c4ccc(F)c(O)c4)c4c(N)ncnc43)n(-c3ccccc3F)c(=O)c12` [Compound 9], for which the EC50 was below 1 µM.

The compound `Cc1cccc2cc(Cn3nc(-c4cccc(O)c4)c4c(N)ncnc43)n(-c3ccccc3F)c(=O)c12` [Compound 10] returned an EC50 below 1 µM.

Compound `Cc1ccccc1-n1c(Cn2nc(C#CCO)c3c(N)ncnc32)cc2cccc(C)c2c1=O` [Compound 11] came in with an EC50 below 1 µM.

As to `Cc1ccccc1-n1c(Cn2nc(-c3ccc(F)c(O)c3)c3c(N)ncnc32)cc2cccc(C)c2c1=O` [Compound 12], the half-maximal effective concentration (EC50) is below 0.1 µM.

`Cc1ccccc1-n1c(Cn2nc(-c3cccc(O)c3)c3c(N)ncnc32)cc2cccc(C)c2c1=O` [Compound 13] had an EC50 below 0.1 µM.

In turn, `Cc1ccccc1-n1c(Cn2nc(C#CC3CC3)c3c(N)ncnc32)cc2cccc(C)c2c1=O` [Compound 14] had an EC50 below 1 µM.

In the case of `Cc1cccnc1-n1c(Cn2nc(I)c3c(N)ncnc32)cc2cccc(C)c2c1=O` [Compound 15], the EC50 was below 1 µM.

In the case of `Cc1cccnc1-n1c(Cn2nc(-c3cc(O)cc(F)c3)c3c(N)ncnc32)cc2cccc(C)c2c1=O` [Compound 16], the EC50 is below 0.1 µM.

`Cc1cccnc1-n1c(Cn2nc(Br)c3c(N)ncnc32)cc2cccc(C)c2c1=O` [Compound 17] had an EC50 below 0.1 µM.

On to `Cc1cccnc1-n1c(Cn2nc(Cl)c3c(N)ncnc32)cc2cccc(C)c2c1=O` [Compound 18], for which the EC50 is below 1 µM.

In the case of `Cc1ccccc1-n1c(Cn2nc(Br)c3c(N)ncnc32)cc2cccc(C)c2c1=O` [Compound 19], the concentration for a half-maximal effect (EC50) is below 1 µM.

In the case of `Cc1ccccc1-n1c(Cn2nc(Cl)c3c(N)ncnc32)cc2cccc(C)c2c1=O` [Compound 20], the EC50 is below 1 µM.

Take `COc1cc(-c2nn(Cc3cc4cccc(C)c4c(=O)n3-c3ccccc3C)c3ncnc(N)c23)ccc1Cl` [Compound 21]: the EC50 is below 1 µM.

For the compound `COc1cc(-c2nn(Cc3cc4cccc(C)c4c(=O)n3-c3ccccc3F)c3ncnc(N)c23)ccc1Cl` [Compound 22], the EC50 is below 10 µM.

Turning to `Cc1ccccc1-n1c(Cn2nc(-c3ccc(Cl)c(O)c3)c3c(N)ncnc32)cc2cccc(C)c2c1=O` [Compound 23], the EC50 was below 0.1 µM.

In turn, `Cc1cccc2cc(Cn3nc(-c4ccc(Cl)c(O)c4)c4c(N)ncnc43)n(-c3ccccc3F)c(=O)c12` [Compound 24] came in with an EC50 below 1 µM.

As to `Cc1ccccc1-n1c(Cn2nc(-c3ccc(O)c(Cl)c3)c3c(N)ncnc32)cc2cccc(C)c2c1=O` [Compound 25], the EC50 is below 1 µM.

Consider `Cc1cccc2cc(Cn3nc(-c4ccc(O)c(Cl)c4)c4c(N)ncnc43)n(-c3ccccc3F)c(=O)c12` [Compound 26], for which the EC50 was below 10 µM.

For `Cc1ccccc1-n1c(Cn2nc(-c3ccc(F)cc3)c3c(N)ncnc32)cc2cccc(C)c2c1=O` [Compound 27], the EC50 is below 10 µM.

Take `Cc1cccc2cc(Cn3nc(C#C[C@@H](C)O)c4c(N)ncnc43)n(-c3ccccc3F)c(=O)c12` [Compound 28]: the EC50 was below 1 µM.

In the case of `Cc1cccc2cc(Cn3nc(-c4ccc(O)c(F)c4)c4c(N)ncnc43)n(-c3ccccc3F)c(=O)c12` [Compound 29], the EC50 was below 1 µM.

For `Cc1ccccc1-n1c(Cn2nc(-c3ccc(O)c(F)c3)c3c(N)ncnc32)cc2cccc(C)c2c1=O` [Compound 30], the EC50 was below 1 µM.

For the compound `Cc1ccccc1-n1c(Cn2nc(I)c3c(N)ncnc32)cc2ccccc2c1=O` [Compound 31], the EC50 is below 1 µM.

For `Cc1ccccc1-n1c(Cn2nc(C#C[C@@H](C)O)c3c(N)ncnc32)cc2ccccc2c1=O` [Compound 32], the EC50 was below 1 µM.

With `Cc1ccccc1-n1c(Cn2nc(-c3cc(O)cc(F)c3)c3c(N)ncnc32)cc2ccccc2c1=O` [Compound 33], the EC50 is below 0.1 µM.

The compound `Cc1cccc2cc(Cn3nc(Cl)c4c(N)ncnc43)n(-c3ccccc3F)c(=O)c12` [Compound 34] displayed an EC50 below 1 µM.

In turn, `Cc1cccc2cc(Cn3nc(Br)c4c(N)ncnc43)n(-c3ccccc3F)c(=O)c12` [Compound 35] had an EC50 below 1 µM.

In turn, `Cc1ccccc1-n1c(Cn2nc(-c3ccc(O)cc3)c3c(N)ncnc32)cc2cccc(C)c2c1=O` [Compound 36] had an EC50 below 1 µM.

As for `Cc1ccccc1-n1c(Cn2nc(C#C[C@@H](C)O)c3c(N)ncnc32)cc2cccc(C)c2c1=O` [Compound 37], the EC50 was below 0.1 µM.

In the case of `Cc1cccc2cc(Cn3nc(-c4cccc(Cl)c4)c4c(N)ncnc43)n(-c3ccccc3F)c(=O)c12` [Compound 38], the EC50 is above 10 µM.

Compound `Cc1ccccc1-n1c(Cn2nc(-c3cccc(Cl)c3)c3c(N)ncnc32)cc2cccc(C)c2c1=O` [Compound 39] came in with an EC50 below 10 µM.

Take `Cc1cccc2cc(Cn3nc(-c4cccc(F)c4)c4c(N)ncnc43)n(-c3ccccc3F)c(=O)c12` [Compound 40]: the EC50 was below 10 µM.

Turning to `Cc1ccccc1-n1c(Cn2nc(-c3cccc(F)c3)c3c(N)ncnc32)cc2cccc(C)c2c1=O` [Compound 41], the EC50 is below 1 µM.

In turn, `Cc1ccccc1-n1c(Cn2nc(I)c3c(N)ncnc32)cc2cccc(F)c2c1=O` [Compound 42] registered an EC50 below 1 µM.

As to `Cc1ccccc1-n1c(Cn2nc(C#C[C@@H](C)O)c3c(N)ncnc32)cc2cccc(F)c2c1=O` [Compound 43], the EC50 is below 10 µM.

`COc1ccc(-c2nn(Cc3cc4cccc(C)c4c(=O)n3-c3ccccc3C)c3ncnc(N)c23)cc1OC` [Compound 44]: the EC50 was below 0.1 µM.

As for `COc1ccc(-c2nn(Cc3cc4cccc(C)c4c(=O)n3-c3ccccc3C)c3ncnc(N)c23)cc1` [Compound 45], the EC50 is below 1 µM.

Turning to `Cc1cccc2cc(Cn3nc(-c4ccc(O)cc4)c4c(N)ncnc43)n(-c3ccccc3F)c(=O)c12` [Compound 46], the EC50 is below 1 µM.

On to `COc1ccc(-c2nn(Cc3cc4cccc(C)c4c(=O)n3-c3ccccc3F)c3ncnc(N)c23)cc1OC` [Compound 47], for which the EC50 was below 1 µM.

Take `Cc1ccccc1-n1c(Cn2nc(-c3cnc4[nH]ccc4c3)c3c(N)ncnc32)cc2cccc(C)c2c1=O` [Compound 48]: the EC50 is below 0.1 µM.

For `Cc1ccccc1-n1c(Cn2nc(-c3ccc(Cl)cc3)c3c(N)ncnc32)cc2cccc(C)c2c1=O` [Compound 49], the concentration giving a half-maximal response (EC50) is below 10 µM.

Compound `Cc1ccccc1-n1c(Cn2nc(-c3ccc4cc[nH]c4c3)c3c(N)ncnc32)cc2cccc(C)c2c1=O` [Compound 50] gave an EC50 below 1 µM.

`Cc1ccccc1-n1c(Cn2nc(-c3cccc(O)c3)c3c(N)ncnc32)cc2ccccc2c1=O` [Compound 51] had an EC50 below 1 µM.

`CC(=O)Nc1nc2ccc(-c3nn(Cc4cc5cccc(C)c5c(=O)n4-c4ccccc4C)c4ncnc(N)c34)cc2s1` [Compound 53] gave an EC50 below 0.1 µM.

As for `Cc1ccccc1-n1c(Cn2nc(-c3ccc(F)c(O)c3)c3c(N)ncnc32)cc2ccccc2c1=O` [Compound 54], the EC50 was below 0.1 µM.

Turning to `Cc1ccccc1-n1c(Cn2nc(-c3cc(O)cc(F)c3)c3c(N)ncnc32)cc2cccc(F)c2c1=O` [Compound 55], the EC50 is below 0.1 µM.

Turning to `Cc1cccc2cc(Cn3nc(I)c4c(N)ncnc43)n(C3CCCC3)c(=O)c12` [Compound 57], the EC50 is below 10 µM.

Take `Cc1cccc2cc(Cn3nc(C#C[C@@H](C)O)c4c(N)ncnc43)n(C(C)C)c(=O)c12` [Compound 61]: the EC50 was below 1 µM.

With `Cc1cccc2cc(Cn3nc(-c4cccc(O)c4)c4c(N)ncnc43)n(C(C)C)c(=O)c12` [Compound 62], the EC50 was below 0.1 µM.

Take `Cc1cccc2cc(Cn3nc(-c4cc(O)cc(F)c4)c4c(N)ncnc43)n(C3CCCC3)c(=O)c12` [Compound 63]: the concentration giving a half-maximal response (EC50) is below 0.1 µM.

The compound `Cc1cccc2cc(Cn3nc(-c4cc(O)cc(F)c4)c4c(N)ncnc43)n(C(C)C)c(=O)c12` [Compound 66] came in with an EC50 below 0.1 µM.

The compound `Cc1cccc2cc(Cn3nc(-c4ccc(F)c(O)c4)c4c(N)ncnc43)n(C(C)C)c(=O)c12` [Compound 67] showed an EC50 below 0.1 µM.

Take `Cc1cccnc1-n1c(Cn2nc(-c3ccc(F)c(O)c3)c3c(N)ncnc32)cc2cccc(C)c2c1=O` [Compound 68]: the EC50 is below 0.1 µM.

Regarding `Cc1cccnc1-n1c(Cn2nc(C#C[C@@H](C)O)c3c(N)ncnc32)cc2cccc(C)c2c1=O` [Compound 69], the EC50 is below 1 µM.

As to `COc1ccccc1-n1c(Cn2nc(I)c3c(N)ncnc32)cc2cccc(C)c2c1=O` [Compound 70], the EC50 was below 1 µM.

As to `Cc1cccc2cc(Cn3nc(-c4ccc(Cl)c(O)c4)c4c(N)ncnc43)n(C3CCCC3)c(=O)c12` [Compound 71], the EC50 is below 10 µM.

Regarding `Cc1cccnc1-n1c(Cn2nc(-c3ccc(Cl)c(O)c3)c3c(N)ncnc32)cc2cccc(C)c2c1=O` [Compound 72], the EC50 was below 0.1 µM.

`Cc1cccnc1-n1c(Cn2nc(-c3cccc(O)c3)c3c(N)ncnc32)cc2cccc(C)c2c1=O` [Compound 73] came in with an EC50 below 0.1 µM.

With `COc1ccccc1-n1c(Cn2nc(-c3cccc(O)c3)c3c(N)ncnc32)cc2cccc(C)c2c1=O` [Compound 74], the EC50 was below 0.1 µM.

As to `Cc1cccc2cc(Cn3nc(I)c4c(N)ncnc43)n(-c3ccccc3C(C)C)c(=O)c12` [Compound 75], the EC50 was below 0.1 µM.

As for `Cc1cccc2cc(Cn3nc(I)c4c(N)ncnc43)n(-c3ccccc3Cl)c(=O)c12` [Compound 76], the EC50 was below 1 µM.

As for `CCc1ccccc1-n1c(Cn2nc(I)c3c(N)ncnc32)cc2cccc(C)c2c1=O` [Compound 77], the EC50 was below 1 µM.

Consider `Cc1ccncc1-n1c(Cn2nc(I)c3c(N)ncnc32)cc2cccc(C)c2c1=O` [Compound 78], for which the EC50 is below 1 µM.
